Data reported in ChEMBL document CHEMBL1201862, “PubChem BioAssay data set” (2004).
Active and inactive are the calls of the source. No stated cut-off is given here; in the data, actives have a measured IC50 and inactives only a lower limit.

Target: Envelope glycoprotein gp160 (Human immunodeficiency virus 1, UniProt Q6QLK5)
Assay: cell-free HIV fusion peptide-binding blockers – biochemical, uHTS, fluorescence dequenching, […] (AID 1986)

Envelope glycoprotein gp160, sequence (Q6QLK5 whole entry, the tested form may be a part): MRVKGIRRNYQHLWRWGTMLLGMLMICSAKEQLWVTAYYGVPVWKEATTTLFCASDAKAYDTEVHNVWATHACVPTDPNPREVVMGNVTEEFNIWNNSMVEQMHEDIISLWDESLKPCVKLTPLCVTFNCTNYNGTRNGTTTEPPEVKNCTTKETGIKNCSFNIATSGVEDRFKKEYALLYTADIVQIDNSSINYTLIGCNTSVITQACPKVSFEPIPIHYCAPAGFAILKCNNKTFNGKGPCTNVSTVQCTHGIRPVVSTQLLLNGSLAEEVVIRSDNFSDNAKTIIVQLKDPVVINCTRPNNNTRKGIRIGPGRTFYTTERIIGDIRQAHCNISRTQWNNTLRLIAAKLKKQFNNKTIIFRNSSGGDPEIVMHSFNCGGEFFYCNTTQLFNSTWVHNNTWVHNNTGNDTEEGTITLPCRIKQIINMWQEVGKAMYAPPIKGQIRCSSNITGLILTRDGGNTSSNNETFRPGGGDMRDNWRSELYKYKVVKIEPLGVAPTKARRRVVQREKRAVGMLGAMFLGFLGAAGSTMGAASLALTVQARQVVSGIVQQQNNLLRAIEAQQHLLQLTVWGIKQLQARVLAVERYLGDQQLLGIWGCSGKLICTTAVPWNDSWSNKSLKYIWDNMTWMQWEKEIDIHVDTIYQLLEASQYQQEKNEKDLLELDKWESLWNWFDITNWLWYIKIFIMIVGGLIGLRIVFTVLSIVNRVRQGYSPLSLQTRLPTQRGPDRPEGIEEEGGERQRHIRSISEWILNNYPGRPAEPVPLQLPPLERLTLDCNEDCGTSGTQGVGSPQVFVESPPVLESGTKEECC

Row | Structure (SMILES) | IC50
1 | O=C(O)CN1C(=O)/C(=C\c2cccc(OCc3ccc(Cl)cc3Cl)c2)SC1=S | 13.1 µM (active)
2 | O=C(O)c1ccccc1NS(=O)(=O)c1ccc(NNC(=S)Nc2ccc(OC(F)F)cc2)c([N+](=O)[O-])c1 | 8.21 µM (active)
